Measured values from article PMC4595804, “A strategy to discover decoy chemokine ligands with an anti-inflammatory activity” (Scientific Reports, 2015).

Tests used:
CXCL8 = CXCL8 (Homo sapiens, UniProt P10145); assay: Selectivity, neutraligand protocol, EGFP-CXCR2+ HEK cells; type: cell-based; details: 10 μM compound, 5 nM CXCL8, EGFP-CXCR2+ HEK cells
Method: Figure 6 (a) Selectivity of CCL17 and CCL22 neutraligands towards 10 chemokines according to the “neutraligand protocol”. […] Each column represents the mean (block) ± SD (bars) of n = 3 experiments performed in triplicate. *p < 0.05; **p < 0.01; ***p < 0.005 as compared to chemokine + DMSO. (b) Chemokine neutraligands inhibited CCR4 endocytosis induced by CCL22 or CCL17. EGFP-CCR4^+ HEK cells were incubated for 30 min with DMSO or chemokine (100 nM CCL22 or CCL17) in the presence or absence of test compounds. […] Cell surface EGFP-tagged CCR4 receptors were measured by EGFP antibody labeling and flow cytometry analysis. CCR4 internalization was expressed as a percentage of total receptor surface expression calculated using control cells incubated with DMSO (100%). […] The number of migrating cells in the presence of chemokine and compounds were expressed as the corresponding percentages. Results were analyzed by fitting the experimental curves (% of migrating cells vs log compound concentration) using the Kaleidagraph software program, and the corresponding IC50 values were calculated. […]
Dye loaded cells were placed in the FlexStation 3 (Molecular Devices). Calcium mobilization was measured at 401 and 475 nm emission fluorescence after excitation at 355 nm. […] Raw fluorescence data (at 401 and 475 nm) were exported and the ratio 401/475 was calculated. […]

[1] = tested on: Balb/c mice sensitized and challenged with OVA; assay: Mouse model of allergic eosinophilic airway inflammation (OVA), BAL cell counts; type: in vivo; details: vs vehicle-treated OVA mice; for overall number of inflammatory cells in BALF: 350 μmol/kg I.P. 2 h before each challenge; for CD4+ T cells in BALF / CD11c+F4/80− dendritic cells in BALF / T cells in BALF / neutrophil counts in BALF / number of CD11c+F4/80+ macrophages in BALF / recruited eosinophils in BALF: 350 μmol/kg I.P.
Method: The differential number of cells recovered in BAL fluid 24 h after the last challenge was counted by flow cytometry. Live leukocytes were identified as CD45^+DAPI^− cells then differentiated into T cells (CD11b^lowCD19^−CD3^+), CD4^+T cells (CD11b^lowCD19^−CD3^+CD4^+), eosinophils (CD11b^+CD11c^−GR1^−), neutrophils (CD11b^+CD11c^−GR1^+), macrophages (CD11b^+GR1^−CD11c^+F4/80^+), dendritic cells (CD11b^+GR1^−CD11c^+F4/80^−).
Nine week-old male Balb/c mice (Janvier) were sensitized on days 1 and 7 by intraperitoneal injection of ovalbumin (OVA, 50μg, grade V, Sigma-Aldrich) adsorbed on aluminium hydroxide (2 mg, Sigma-Aldrich) in PBS. Mice were challenged intranasally with OVA (10 μg) in 25μl of saline on days 18–21. Control mice received intranasal administrations of saline alone. […] Animal experimentation was approved by the local ethics committee (Comité Régional d’Ethique en Matière d’Expérimentation Animale de Strasbourg CREMEAS) and carried out in accordance with the approved guidelines. Collection of the bronchoalveolar lavage fluid (BALF) was performed 24 h after the last OVA challenge as described previously. Cell counts were assessed by flow cytometry (LSRII® cytometer, BD bioscience). BAL cells were added with FCblock (5 μl, 553142, BD bioscience) in a black microplate, incubated for 20 min at room temperature. Then, marker antibodies were added: CD11c-FITC (557400, BD bioscience), Gr-1-Pe-eFluor610 (61-5931-82, eBioscience), CD11b-APC-Cy7 (557657, BD bioscience), CD45-AlexaFluor700 (103128, BioLegend), CD3-BV605 (564009, BD bioscience), CD4-PerCP-Cy5.5 (45-0042-82, eBioscience), F4/80-PE (12-4801-82, eBioscience). Antibodies were incubated for 30 min before DAPI (5 μl, BD bioscience) addition, and flow cytometry was performed immediately.

CXCL8, sequence (P10145 28-99 limits assumed): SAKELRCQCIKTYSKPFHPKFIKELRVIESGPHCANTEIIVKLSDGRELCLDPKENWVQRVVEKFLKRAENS

| Compound | effect on calcium responses induced by CXCL8 (CXCL8) | overall number of inflammatory cells in BALF [1] | CD4+ T cells in BALF [1] | CD11c+F4/80− dendritic cells in BALF [1] | T cells in BALF [1] | neutrophil counts in BALF [1] | number of CD11c+F4/80+ macrophages in BALF [1] | recruited eosinophils in BALF [1] |
| --- | --- | --- | --- | --- | --- | --- | --- | --- |
| CC(C)=CCn1cnc2c1c(=O)n(C)c(=O)n2C [GPN279, 1,3-dimethyl-7-(3-methylbut-2-enyl)-1H-purine-2,6(3H, 7H)-dione] | no effect | significantly reduced | significantly reduced | significantly reduced | significantly reduced | significantly inhibited | not modified | significantly reduced |
| O=C(OCC(O)CO)c1ccccc1O (stereo not shown) [GPN136, 2,3-dihydroxypropyl 2-hydroxybenzoate] | no effect | significantly reduced | significantly reduced | significantly reduced | significantly reduced | did not | not modified | significantly reduced |
